From US6979686B1, “Substituted pyrazoles as p38 kinase inhibitors” (Pharmacia Corporation, priority 2001, dated 2005) come the findings set out here.

Like-named read-outs stand apart in the source and are kept apart here.

In assay [1] the test system is TNF-α, U937 human histiocytic lymphoma cell line. Put plainly: LPS stimulation of TNF production by U937 cells. In kind it is cell-based. The following applies: for inhibition at 1 µM: U-937, @ 1.0 uM, read-out: U937 Cell % inhib @ conc.; for IC50: human U937 cells stimulated with LPS, read-out: U937 Cell IC50. A digest of the protocol:
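U937 cells differentiated 24 h with 20 ng/ml PMA, rested 24-48 h, used at 2 million cells/ml. Compounds in 0.1% DMSO final; LPS (E. coli, 100 ng/ml final) stimulation for 4 h at 37° C. Released TNF-α measured by ELISA; IC50 (μM).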

The next assay concerns the target T1, human p38 kinase alpha (Homo sapiens, UniProt Q16539).
T1 construct: GST (N, cleaved yes); made in house; host or cells: E. coli DH10B
Put plainly: p38 kinase in vitro assay, phosphorylation of biotinylated PHAS-I with 32P-ATP. The class given is biochemical. The following applies: for P38 alpha kinase % inhib @ conc. (uM): @ 1.0 uM; for IC50: read-out: P38 alpha kinase IC50.

Where [2] appears, read: @ 1.0 uM, TNF production, U937 cells stimulated with LPS.
The mark [3] stands for this setting: Homo sapiens, TNF production, U937 cells stimulated with LPS.
Setting [4] is: in vitro P38-alpha kinase inhibition.
The mark [5] stands for this setting: Homo sapiens, U-937, TNF production.
The mark [6] stands for this setting: Homo sapiens, TNF production, LPS-stimulated U937 cells.

T1 sequence (Q16539 whole entry): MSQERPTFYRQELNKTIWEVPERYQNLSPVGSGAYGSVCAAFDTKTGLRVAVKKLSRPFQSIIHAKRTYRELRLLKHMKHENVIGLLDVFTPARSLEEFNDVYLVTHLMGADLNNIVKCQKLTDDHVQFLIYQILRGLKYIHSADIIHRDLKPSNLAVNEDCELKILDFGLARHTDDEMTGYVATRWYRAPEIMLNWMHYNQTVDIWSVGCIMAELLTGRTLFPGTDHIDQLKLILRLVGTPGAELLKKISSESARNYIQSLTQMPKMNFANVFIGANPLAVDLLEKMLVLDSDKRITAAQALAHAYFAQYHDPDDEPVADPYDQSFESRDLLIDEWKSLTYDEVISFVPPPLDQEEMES

`O=S(=O)(NCCc1[nH]nc(-c2ccc(F)cc2)c1-c1ccncc1)c1ccccc1F` [Example B-1020]: in assay [1] (setting [2]), the “U937 Cell % inhib @ conc. (uM)” value was 36.0% @. In addition, the “P38 alpha kinase % inhib @ conc. (uM)” value on human p38 kinase alpha amounted to 87.0% @.
With `Cc1ccc(S(=O)(=O)NCCc2[nH]nc(-c3ccc(F)cc3)c2-c2ccncc2)cc1` [Example B-1027], the “U937 Cell % inhib @ conc. (uM)” value in assay [1] (setting [2]) is given as 18.0% @. For the same compound, at human p38 kinase alpha, the “P38 alpha kinase % inhib @ conc. (uM)” value is reported as 58.0% @.
As to `C[C@@H](NC(=O)NCCc1[nH]nc(-c2ccc(F)cc2)c1-c1ccncc1)c1ccccc1` [Example B-1045], the “U937 Cell % inhib @ conc. (uM)” value in assay [1] (setting [2]) is 25.0% @. For the same compound, the “P38 alpha kinase % inhib @ conc. (uM)” value at human p38 kinase alpha is 78.0% @.
With `CC(=O)Nc1ccc(S(=O)(=O)NCCc2[nH]nc(-c3ccc(F)cc3)c2-c2ccncc2)cc1` [Example B-1059], the inhibition at 1 µM in assay [1] (setting [3]) was 24%. Also, the IC50 at human p38 kinase alpha (setting [4]) was 0.18 µM.
For `O=S(=O)(NCCc1[nH]nc(-c2ccc(F)cc2)c1-c1ccncc1)c1ccc2ccccc2c1` [Example B-1068] the same measures were 24% and 0.48 µM.
For `CN(C)c1cccc2c(S(=O)(=O)NCCc3[nH]nc(-c4ccc(F)cc4)c3-c3ccncc3)cccc12` [Example B-1072] the same measures were 28% and 0.38 µM.
The corresponding values for `O=S(=O)(NCCc1[nH]nc(-c2ccc(F)cc2)c1-c1ccncc1)c1cccc(Cl)c1Cl` [Example B-1073] are 21% and < 0.1 µM.
Take `Cc1c(Cl)cccc1S(=O)(=O)NCCc1[nH]nc(-c2ccc(F)cc2)c1-c1ccncc1` [Example B-1075]: in assay [1] (setting [3]), the inhibition at 1 µM was 29%. On human p38 kinase alpha (setting [4]), the IC50 was determined as 0.03 µM.
The corresponding values for `O=S(=O)(NCCc1[nH]nc(-c2ccc(F)cc2)c1-c1ccncc1)c1ccc(Cl)cc1Cl` [Example B-1076] are 31% and 0.08 µM.
The corresponding values for `O=S(=O)(NCCc1[nH]nc(-c2ccc(F)cc2)c1-c1ccncc1)c1cc(Cl)c(Cl)s1` [Example B-1080] are 28% and 0.19 µM.
In the case of `CCCCOc1ccc(S(=O)(=O)NCCc2[nH]nc(-c3ccc(F)cc3)c2-c2ccncc2)cc1` [Example B-1084], the inhibition at 1 µM in assay [1] (setting [3]) was 29%. For the same compound, on human p38 kinase alpha (setting [4]), the IC50 worked out at 0.43 µM.
With `COc1ccc(OC)c(S(=O)(=O)NCCc2[nH]nc(-c3ccc(F)cc3)c2-c2ccncc2)c1` [Example B-1085], the inhibition at 1 µM in assay [1] (setting [3]) stood at 29%. Moreover, the IC50 on human p38 kinase alpha (setting [4]) is < 0.1 µM.
The corresponding values for `Cc1ccccc1C(=O)NCCc1[nH]nc(-c2ccc(F)cc2)c1-c1ccncc1` [Example B-1120] are 9% and 0.47 µM.
For `O=C(NCCc1[nH]nc(-c2ccc(F)cc2)c1-c1ccncc1)c1ccc(Cl)cc1` [Example B-1121] the same measures were 29% and 3.58 µM.
With `O=C(NCCc1[nH]nc(-c2ccc(F)cc2)c1-c1ccncc1)c1cc(Cl)cc(Cl)c1` [Example B-1126], the IC50 was > 1 µM in assay [1] (setting [5]) and 1.5 µM on human p38 kinase alpha (setting [4]).
Take `N#Cc1cccc(C(=O)NCCc2[nH]nc(-c3ccc(F)cc3)c2-c2ccncc2)c1` [Example B-1127]: the inhibition at 1 µM in assay [1] (setting [3]) was found to be 7%. Besides, on human p38 kinase alpha (setting [4]), the IC50 was 0.71 µM.
`O=C(NCCc1[nH]nc(-c2ccc(F)cc2)c1-c1ccncc1)c1cc(F)cc(F)c1` [Example B-1130]: the inhibition at 1 µM in assay [1] (setting [3]) came out at 29%. For the same compound, at human p38 kinase alpha (setting [4]), the IC50 amounted to 0.5 µM.
The corresponding values for `O=C(NCCc1[nH]nc(-c2ccc(F)cc2)c1-c1ccncc1)c1cccc(Cl)c1Cl` [Example B-1132] are 11% and 0.72 µM.
In the case of `O=C(NCCc1[nH]nc(-c2ccc(F)cc2)c1-c1ccncc1)c1cccc(C(F)(F)F)c1F` [Example B-1138], the IC50 in assay [1] (setting [5]) was > 1 µM; at human p38 kinase alpha (setting [4]), 1.82 µM.
With `O=C(NCCc1[nH]nc(-c2ccc(F)cc2)c1-c1ccncc1)c1ccc(F)cc1C(F)(F)F` [Example B-1139], in assay [1] (setting [3]), the inhibition at 1 µM came out at 29%. The IC50 on human p38 kinase alpha (setting [4]) came out at 0.041 µM.
The corresponding values for `O=C(NCCc1[nH]nc(-c2ccc(F)cc2)c1-c1ccncc1)c1ccc(C(F)(F)F)cc1` [Example B-1155] are 30% and 3.22 µM.
Regarding `O=C(NCCCc1[nH]nc(-c2ccc(F)cc2)c1-c1ccncc1)C1CCC1` [Example B-1165], the IC50 in assay [1] (TNF production) was found to be 0.99 µM. Besides, the “P38 alpha kinase % inhib @ conc. (uM)” value on human p38 kinase alpha is 66.0% @.
The corresponding values for `CC(C)=CC(=O)NCCCc1[nH]nc(-c2ccc(F)cc2)c1-c1ccncc1` [Example B-1175] are 1.83 µM and 72.0% @.
For `COc1ccc(CC(=O)NCCCc2[nH]nc(-c3ccc(F)cc3)c2-c2ccncc2)cc1` [Example B-1177], the IC50 in assay [1] (TNF production) was determined as 1.16 µM. Also, the “P38 alpha kinase % inhib @ conc. (uM)” value at human p38 kinase alpha is 70.0% @.
For `COc1cccc(C(=O)NCCCc2[nH]nc(-c3ccc(F)cc3)c2-c2ccncc2)c1` [Example B-1185] the same measures were 0.79 µM and 71.0% @.
Turning to `O=S(=O)(NCCCc1[nH]nc(-c2ccc(F)cc2)c1-c1ccncc1)c1cccc(Cl)c1Cl` [Example B-1250], the inhibition at 1 µM in assay [1] (setting [6]) amounted to 18%. Moreover, on human p38 kinase alpha (in vitro P38-alpha kinase), the IC50 is 0.14 µM.
`O=S(=O)(NCCCc1[nH]nc(-c2ccc(F)cc2)c1-c1ccncc1)c1ccccc1Br` [Example B-1259]: the IC50 in assay [1] (setting [5]) is 0.48 µM; at human p38 kinase alpha (in vitro P38-alpha kinase), < 0.1 µM.
As for `Cc1ccc(C)c(S(=O)(=O)NCCCc2[nH]nc(-c3ccc(F)cc3)c2-c2ccncc2)c1` [Example B-1273], the inhibition at 1 µM in assay [1] (setting [6]) is 36%. Also, the IC50 at human p38 kinase alpha (in vitro P38-alpha kinase) was < 0.1 µM.
Regarding `O=S(=O)(NCCCc1[nH]nc(-c2ccc(F)cc2)c1-c1ccncc1)c1cccc(C(F)(F)F)c1` [Example B-1276], the inhibition at 1 µM in assay [1] (setting [6]) stood at 11%. The IC50 at human p38 kinase alpha (in vitro P38-alpha kinase) was determined as 0.062 µM.
`Cc1noc(C)c1S(=O)(=O)NCCCc1[nH]nc(-c2ccc(F)cc2)c1-c1ccncc1` [Example B-1281]: the inhibition at 1 µM in assay [1] (setting [6]) worked out at 85%. Moreover, at human p38 kinase alpha (in vitro P38-alpha kinase), the IC50 was < 0.1 µM.
Consider `O=C(NCCCc1[nH]nc(-c2ccc(F)cc2)c1-c1ccncc1)NCCCn1ccnc1` [Example B-1297], for which the IC50 is > 1 µM in assay [1] (setting [5]) and 0.02 µM on human p38 kinase alpha (in vitro P38-alpha kinase).
On to `CN(C)c1ccc(CNC(=O)NCCCc2[nH]nc(-c3ccc(F)cc3)c2-c2ccncc2)cc1` [Example B-1301], for which the inhibition at 1 µM in assay [1] (setting [6]) was determined as 15%. In addition, on human p38 kinase alpha (in vitro P38-alpha kinase), the IC50 came to 0.12 µM.
The corresponding values for `CN(C)CCNC(=O)NCCCc1[nH]nc(-c2ccc(F)cc2)c1-c1ccncc1` [Example B-1302] are 11% and 0.023 µM.
Consider `CN(C)CCCNC(=O)NCCCc1[nH]nc(-c2ccc(F)cc2)c1-c1ccncc1` [Example B-1303], for which the IC50 in assay [1] (setting [5]) was > 1 µM; at human p38 kinase alpha (in vitro P38-alpha kinase), 0.08 µM.
Consider `CC(=O)NCCNC(=O)NCCCc1[nH]nc(-c2ccc(F)cc2)c1-c1ccncc1` [Example B-1305], for which, in assay [1] (@ 1.0 uM, TNF production, LPS-stimulated U937 cells), the “U937 Cell % inhib @ conc.” value is listed as 9.0% @. In addition, the IC50 on human p38 kinase alpha (in vitro P38-alpha kinase) came out at 0.64 µM.
In the case of `NS(=O)(=O)c1ccc(CNC(=O)NCCCc2[nH]nc(-c3ccc(F)cc3)c2-c2ccncc2)cc1` [Example B-1308], the values for the IC50 (in assay [1] (setting [5]); on human p38 kinase alpha (in vitro P38-alpha kinase)) were > 1 µM and < 0.1 µM, respectively.
For `O=C(NCCCc1[nH]nc(-c2ccc(F)cc2)c1-c1ccncc1)NC1CN2CCC1CC2` (stereo not shown) [Example B-1309] the same measures were > 1 µM and 0.045 µM.
Consider `O=C(NCCCc1[nH]nc(-c2ccc(F)cc2)c1-c1ccncc1)NCc1cccnc1` [Example B-1310], for which the inhibition at 1 µM in assay [1] (setting [6]) came to 11%. Besides, at human p38 kinase alpha (in vitro P38-alpha kinase), the IC50 stood at 0.12 µM.
